US9353150B2, “Substituted pyrazino[1′,2′:1 ,5]pyrrolo[2,3-b]-indole-1,4-diones for cancer treatment” (Massachusetts Institute of Technology, priority 2012, dated 2016)
Entries after “also recorded” stand apart in the source; their conditions may differ. Like-named read-outs stand apart in the source and are kept apart here.

What was measured:
[1] = test system: U-937 (hystiocytic lymphoma); experiment: 72-hour IC50 determination for non-adherent cells using MTS; assay type: cell-based, human
Protocol: (§1) Certain synthesized compounds were screened for their ability to induce death in two human cancer cell lines: U-937 (leukemic monocyte lymphoma) and HeLa (cervical cancer).
(§2) Cells were grown in media supplemented with fetal bovine serum (FBS) and antibiotics ([…]). Specifically, experiments were performed using the following cell lines and media compositions: U-937, HeLa, H460, and 786-O (RPMI-1640+10% FBS), and MCF7 (EMEM+10% FBS). Cells were incubated at 37° C. in a 5% CO2, 95% humidity atmosphere.
(§3) In a 96-well plate, compounds were pre-added as DMSO stocks in triplicate to achieve a final concentration of 1%. DMSO and cell-free wells served as the live and dead control, respectively. U-937 (5,000 cells/well) cells were distributed in 100 μL media to the compound-containing plate. After 72 hours, cell viability was assessed by adding 20 μL of a PMS/MTS solution (Cory, A. H.; Owen, T. C.; Barltrop, J. A.; Cory, J. G. Cancer Commun. 1991, 3, 207) to each well, allowing the dye to develop at 37° C. until the live control had processed MTS, and reading the absorbance at λ=490 nm. IC50 values were determined from three or more independent experiments using TableCurve (San Jose, Calif.).

[2] = test system: HeLa (cervical carcinoma); experiment: 72-hour IC50 determination for adherent cells using sulforhodamine B (SRB); assay type: cell-based, human
Protocol: as §1, §2
(§4) Adherent cells (HeLa, H460, 786-O, and MCF7) were added into 96-well plates (5,000 cells/well for HeLa cell line; 2,000 cells/well for H460, 786-O, and MCF7 cell lines) in 100 μL media and were allowed to adhere for 2-3 hours. Compounds were solubilized in DMSO as 100× stocks, added directly to the cells (100 μL final volume), and tested over a range of concentrations in triplicate (1% DMSO final) on a half-log scale. Concentrations tested ranged from […] to 10 μM, depending on the potency of the compound. DMSO and cell-free wells served as the live and dead control, respectively. After 72 hours of continuous exposure, the plates were evaluated using the SRB colorimetric assay as described previously (Vichai, V.; Kirtikara, K. Nature Prot. 2006, 1, 1112). Briefly, media was removed from the plate, and cells were fixed by the addition of 100 μL cold 10% trichloroacetic acid in water. After incubating at 4° C. for an hour, the plates were washed in water and allowed to dry. Sulforhodamine B was added as a 0.057% solution in 1% acetic acid (100 μL), and the plates were incubated at room temperature for 30 minutes, washed in 1% acetic acid, and allowed to dry. The dye was solubilized by adding 10 mM Tris base solution (pH 10.5, 200 μL) and incubating at room temperature for 30 minutes. Plates were read at λ=510 nm. IC50 values were determined from three or more independent experiments using TableCurve (San Jose, Calif.).

786-O (renal carcinoma) = experiment: as above; assay type: cell-based, human; details: error is standard deviation of the mean, n ≧ 3, read-out: 786-O, 72-hour IC50 (Table E1-2)
Protocol: (§5) Certain provided compounds were tested in culture against a panel of three supplementary human cancer cell lines representing three additional tumor histologies (H460, lung carcinoma; 786-O, renal carcinoma; MCF-7, breast carcinoma). As shown in Table E1-2, the ETPs retain their potency across the cell lines. In some embodiments, a provided compound is active in all cell lines. In some embodiments, a provide compound can be used to selectively target certain cells and/or cancers. […] Without the intention to be limited, Applicant notes that certain cell lines could be more sensitive to provided compounds; for example, U-937 and HeLa are slightly more sensitive to the ETPs than the other three cell lines.
as §2, §4

H460 (lung carcinoma) = experiment: as above; assay type: cell-based, human; details: error is standard deviation of the mean, n ≧ 3, read-out: H460, 72-hour IC50 (Table E1-2)
Protocol: as §5, §2, §4

MCF-7 (breast carcinoma) = experiment: as above; assay type: cell-based, human; details: error is standard deviation of the mean, n ≧ 3, read-out: MCF-7, 72-hour IC50 (Table E1-2)
Protocol: as §5, §2, §4

human cancer cell lines = experiment: Anticancer activity in human cancer cell lines, not tied to one cell line; assay type: cell-based; details: for anticancer activity, in words: human cancer cell lines, 72-hour exposure; for change in activity across cell lines: five cell lines of Table E1-2
Protocol: as §1, §5, §4, §3

[3] = 72-hour exposure, MTS, error is standard deviation of the mean, n ≧ 3, read-out: U-937, 72-hour IC50 (Table E1-1)
[4] = 72-hour exposure, MTS, error is standard deviation of the mean, n ≧ 3, read-out: U-937, 72-hour IC50 (Table E1-2)
[5] = 72-hour exposure, SRB, error is standard deviation of the mean, n ≧ 3, read-out: HeLa, 72-hour IC50 (Table E1-1)
[6] = 72-hour exposure, SRB, error is standard deviation of the mean, n ≧ 3, read-out: HeLa, 72-hour IC50 (Table E1-2)
[7] = Homo sapiens, U-937, 72-hour exposure, MTS, error is standard deviation of the mean, n ≧ 3, read-out: U-937, 72-hour IC50 (Table E1-1)
[8] = Homo sapiens, U-937, 72-hour exposure, MTS, error is standard deviation of the mean, n ≧ 3, read-out: U-937, 72-hour IC50 (Table E1-2)
[9] = Homo sapiens, HeLa, 72-hour exposure, SRB, error is standard deviation of the mean, n ≧ 3, read-out: HeLa, 72-hour IC50 (Table E1-1)
[10] = Homo sapiens, HeLa, 72-hour exposure, SRB, error is standard deviation of the mean, n ≧ 3, read-out: HeLa, 72-hour IC50 (Table E1-2)
[11] = Homo sapiens, 786-0, 72-hour exposure
[12] = Homo sapiens, NCI-H460, 72-hour exposure
[13] = Homo sapiens, MCF7, 72-hour exposure
[14] = Homo sapiens, U-937, 72 h, read-out: IC50 (U-937)
[15] = Homo sapiens, U-937, 72 h, read-out: U-937, 72-hour IC50 (Table E1-1)
[16] = Homo sapiens, U-937, 72 h, read-out: U-937, 72-hour IC50 (Table E1-2)
[17] = Homo sapiens, HeLa, 72 h, read-out: HeLa, 72-hour IC50 (Table E1-1)
[18] = Homo sapiens, HeLa, 72 h, read-out: HeLa, 72-hour IC50 (Table E1-2)
[19] = Homo sapiens, HeLa, 72 h, read-out: IC50 (HeLa)

Structure (SMILES) | IC50 [1, 3] | IC50 [1, 4] | IC50 [2, 5] | IC50 [2, 6] | IC50 (786-O (renal carcinoma); 72-hour exposure) | IC50 (H460 (lung carcinoma); 72-hour exposure) | IC50 (MCF-7 (breast carcinoma); 72-hour exposure) | anticancer activity, in words (human cancer cell lines) | IC50 (786-O (renal carcinoma); [11]) | IC50 (H460 (lung carcinoma); [12]) | IC50 (MCF-7 (breast carcinoma); [13]) | also measured
CN1C(=O)[C@@]23C[C@]4([C@]56C[C@@]78SS[C@@](C)(C(=O)N7[C@H]5Nc5ccccc56)N(C)C8=O)c5ccccc5N[C@@H]4N2C(=O)[C@]1(C)SS3 [Compound 3, (+)-12,12′-dideoxyverticillin A] | 15.5 ± 2.9 nM | 15.5 ± 2.9 nM | 7.2 ± 3 nM | 7.2 ± 3 nM | 33.5 ± 12.6 nM | 42 ± 15 nM | 28.4 ± 4.5 nM | active across the board |  |  |  | IC50 ([1]; 72-hour exposure, read-out: IC50 (U-937)): 15.5 nM; IC50 ([2]; 72-hour exposure, read-out: IC50 (HeLa)): 7.2 nM
CN1C(=O)[C@@]23C[C@]4([C@]56C[C@@]78SS[C@@](CO)(C(=O)N7[C@H]5Nc5ccccc56)N(C)C8=O)c5ccccc5N[C@@H]4N2C(=O)[C@]1(CO)SS3 [Compound 4, (+)-chaetocin A] | 0.81 ± 0.15 nM | 0.81 ± 0.15 nM | 6.9 ± 2 nM | 6.9 ± 2 nM | 26.5 ± 7.7 nM | 53 ± 23 nM | 50 ± 16 nM | active across the board |  |  |  | 
CN1C(=O)[C@@]23C[C@]4([C@]56C[C@@]78SSSS[C@@](CO)(C(=O)N7[C@H]5Nc5ccccc56)N(C)C8=O)c5ccccc5N[C@@H]4N2C(=O)[C@]1(CO)SSSS3 [Compound 6, (+)-12,12′-dideoxychetracin A] |  |  |  |  |  |  |  | active across the board | 16 ± 2.4 nM | 39.3 ± 41 nM | 22.5 ± 6 nM | IC50 [1, 7]: 1.3 ± 0.5 nM; IC50 [1, 8]: 1.3 ± 0.5 nM; IC50 ([1]; Homo sapiens, U-937, 72-hour exposure, read-out: IC50 (U-937)): 0.75 to 1.3 nM; IC50 [2, 9]: 5.6 ± 1 nM; IC50 [2, 10]: 5.6 ± 1 nM; IC50 ([2]; Homo sapiens, HeLa, 72-hour exposure, read-out: IC50 (HeLa)): 5.6 to 6.9 nM
CN1C(=O)C23CC4(C56CC78SC(=S)S[C@](C)(C(=O)N7[C@H]5N(S(=O)(=O)c5ccccc5)c5ccccc56)N(C)C8=O)c5ccccc5N(S(=O)(=O)c5ccccc5)[C@@H]4N2C(=O)[C@@]1(C)SC(=S)S3 (some centres unmarked) [Compound 18, Dimeric bisdithiepanethione] |  |  |  |  |  |  |  | competent anticancer agents; also recorded: active across the board | 14.9 ± 4.4 nM | 18.5 ± 2.7 nM | 10.7 ± 8.1 nM | IC50 [1, 7]: 2.9 ± 2.1 nM; IC50 [1, 8]: 2.9 ± 2.1 nM; IC50 [2, 9]: 1.1 ± 0.8 nM; IC50 [2, 10]: 1.1 ± 0.8 nM
CN1C(=O)[C@@]23C[C@]4(Br)c5ccccc5N(S(=O)(=O)c5ccccc5)[C@@H]4N2C(=O)[C@@H]1SS3 [Compound 30, C3-Bromo epidithiodiketopiperazines] | 5 ± 1.3 nM | 5 ± 1.3 nM | 44.9 ± 1.3 nM | 44.9 ± 1.3 nM | 162 ± 35 nM | 277 ± 44 nM | 152 ± 42 nM | intermediately good activity |  |  |  | 
CN1C(=O)[C@@]23C[C@]4(F)c5ccccc5N(S(=O)(=O)c5ccccc5)[C@@H]4N2C(=O)[C@@H]1SS3 [Compound 31, C3-Fluoro epidithiodiketopiperazines] | 20.7 ± 6.4 nM | 20.7 ± 6.4 nM | 1530 ± 440 nM | 1530 ± 440 nM | 368 ± 78 nM | > 1000 nM | 218 ± 97 nM | intermediately good activity |  |  |  | 
CN1C(=O)[C@@]23C[C@]4(c5cc[nH]c5)c5ccccc5N(S(=O)(=O)c5ccccc5)[C@@H]4N2C(=O)[C@@H]1SS3 [Compound 32, C3-(Pyrrol-3′-yl) epidithiodiketopiperazine] |  |  |  |  |  |  |  |  | 66 ± 23 nM | 31.8 ± 2.5 nM | 61 ± 11 nM | IC50 [1, 14]: 2.8 to 14.8 nM; IC50 [1, 15]: 14.8 ± 3.1 nM; IC50 [1, 16]: 14.8 ± 3.1 nM; IC50 [2, 17]: 26.8 ± 4.8 nM; IC50 [2, 18]: 26.8 ± 4.8 nM; IC50 [2, 19]: 22 to 75 nM; change in activity across cell lines (human cancer cell lines): 4 fold
COc1ccc([C@]23C[C@@]45SS[C@@H](C(=O)N4[C@H]2N(S(=O)(=O)c2ccccc2)c2ccccc23)N(C)C5=O)cc1 [Compound 33, C3-(p-Methoxyphenyl)epidithiodiketopiperazine] |  |  |  |  |  |  |  |  | 83 ± 18 nM | 46.7 ± 5.3 nM | 63 ± 16 nM | IC50 [1, 14]: 2.8 to 14.8 nM; IC50 [1, 15]: 5 ± 2.1 nM; IC50 [1, 16]: 5 ± 2.1 nM; IC50 [2, 17]: 22.2 ± 10.9 nM; IC50 [2, 18]: 22.2 ± 10.9 nM; IC50 [2, 19]: 22 to 75 nM; change in activity across cell lines (human cancer cell lines): 4 fold
CN1C(=O)[C@]23C[C@]4(F)c5ccccc5N(S(=O)(=O)c5ccccc5)[C@@H]4N2C(=O)[C@H]1SS3 [Compound 35, C3-Fluoro epidithiodiketopiperazines] | 21.3 ± 8.7 nM | 21.3 ± 8.7 nM | 56 ± 21 nM | 56 ± 21 nM | 64 ± 20 nM | 123 ± 50 nM | 93 ± 34 nM | intermediately good activity |  |  |  | 
